Test results published in patent publication USRE47689E1, “Compounds for treating spinal muscular atrophy” (PTC Therapeutics, Inc., priority 2011, dated 2019).

Test system: full length and Δ7 SMN2 mRNAs
Assay: SMN2 mRNA RT-qPCR splicing assay in animal tissues
Type: in vivo, mouse
Settings: C/C-allele SMA mice, brain and muscle, 10 mg/kg oral gavage twice per day for 10 days
Method: The reverse transcription-quantitative PCR-based (RT-qPCR) assay is used to quantify the levels of the full length and Δ7 SMN2 mRNAs in tissues from mice treated with test compound.
Protocol. C/C-allele SMA mice are treated by oral gavage two times per day for 10 days with test compounds resuspended in 0.5% HPMC and 0.1% Tween-80. Tissue samples were collected and snap frozen for RNA purification.
Tissue samples (20-40 mg) are homogenized in QIAzol Lysis Reagent for 2 minutes at 20 Hz in the TissueLyser II using one stainless steel bead. After addition of chloroform, the homogenate is separated into aqueous and organic phases by centrifugation. RNA partitioned to the upper, aqueous phase is extracted and ethanol is added to provide appropriate binding conditions. The sample is then applied to the RNeasy spin column from the RNeasy Mini Kit, where total RNA binds to the membrane. The RNA is eluted in RNase-free water then stored at −20° C. and subsequently analyzed using the TaqMan RT-qPCR on the 7900HT Thermocycler. Total RNA is diluted ten fold and 2.5 μL of the diluted sample is added to the TaqMan RT-qPCR mixture.
SMN2 spliced products are identified using the following primers and probes in Table 7. Primer SMN FL Forward B (SEQ ID NO. 7) hybridizes to a nucleotide sequence in exons 7 and 8, primer SMN Δ7 Forward B (SEQ ID NO. 8) hybridizes to a nucleotide sequence in exons 6 and 8, primer SMN Reverse B (SEQ ID NO. 9) hybridizes to a nucleotide sequence in exon 8, probe SMN Probe B (SEQ ID NO. 10) hybridizes to a nucleotide sequence in exon 8. These primers and probe hybridize to nucleotide sequences common to human SMN1 and SMN2 mRNAs. Since the SMA patient cells used in Example 5 contain only the SMN2 gene, RT-qPCR can quantify only SMN2 full-length and Δ7 mRNAs.
The SMN forward and reverse primers are used at final concentrations of 0.4 μM. The SMN probe is used at a final concentration of 0.15 μM. The SMN-GAPDH Mix (10 μL total volume) is prepared by combining 5 μL of 2×RT-PCR buffer, 0.4 μL of 25×RT-PCR enzyme mix, 0.5 μL of 20×GAPDH primer-probe mix, 1.505 μL of water, 2.5 μL of RNA solution, 0.04 μL of 100 μM forward primer, 0.04 μL of 100 μM reverse primer, and 0.015 μL of 100 μM SMN probe. […]
The increase of SMN2 FL and decrease in SMN2 Δ7 mRNAs relative to those in tissues from animals treated with vehicle control are determined from real-time PCR data using a modified ΔΔCt method (as described in Livak and Schmittgen, Methods, 2001, 25:402-8). The amplification efficiency E is calculated from the slope of the amplification curve for SMN2 FL, SMN2 Δ7, and GAPDH individually. The abundances of SMN2 FL, SMN2 Δ7, and GAPDH are then calculated as (1+E)^−Ct, where Ct is the threshold value for each amplicon. […]

Compound | SMN2 FL mRNA relative to vehicle | SMN2 Δ7 mRNA relative to vehicle
CCN1CCN(c2ccc3cc(-c4cn5cc(C)nc(C)c5n4)c(=O)oc3c2)C[C@@H]1C [Cpd 626, 3-(6,8-dimethylimidazo[1,2-a]pyrazin-2-yl)-7-[(3S)-4-ethyl-3-methylpiperazin-1-yl]-2H-chromen-2-one] | substantially more SMN2 FL mRNA | less SMN2 Δ7 mRNA
CC(C)NCCc1ccc2cc(-c3nc4c(Cl)cccc4s3)c(=O)oc2c1 [Cpd 35, 3-(4-chloro-1,3-benzothiazol-2-yl)-7-[2-(propan-2-ylamino)ethyl]-2H-chromen-2-one] | substantially more SMN2 FL mRNA | less SMN2 Δ7 mRNA
